Measured values published in patent US8716256B2, “Method of therapy and diagnosis of atherosclerosis” (Kaoshiung Medical University, priority 2011, dated 2014).

Key:
Format in all cases: cell-based, human
[1] = test system: OCT-1; assay: OCT-1 expression in HASMC by real time PCR and western blot; details: for protein levels of OCT-1 (western blot): HASMC with suppressor, with or without oxLDL, FIGS. 23, 28
Method: The following trials stress on the mechanism between let-7g, LOX-1, oxLDL and OCT-1. In FIG. 17, the expression of OCT-1 under various levels of oxLDL is shown. In the present embodiment, […], and then total RNA samples and protein samples of the HASMC are prepared and analyzed by the real time PCR and western blot assay of the present invention. Precisely, the preparation of the total RNA samples and the protein samples of the HASMC, also the PCR program and western blot assay are performed according to the above protocols. Moreover, a primer pair of OCT-1 set forth in SEQ ID NO. 19 and 20 is designed and used in real time PCR analysis, and a commercial OCT-1 antibody (Sigma-Aldrich Inc, MO, USA) is used in western blot assay.
In the present embodiment, primer pairs set forth in SEQ ID NO. 3, 4, 7, 8, 19, 20, the LOX-1 antibody, and the OCT-1 antibody are used respectively in PCR or western blot assay.
With reference to FIG. […] More specifically, […], such as 0, 25, 50, and 75 μg/ml, […] 2000, […] by real time PCR and western blot according to the protocols described above. Moreover, primer pairs set forth in SEQ ID NO. 19 and 20, and the OCT-1 antibody are used respectively in PCR or western blot analysis.

[2] = test system: let-7g; assay: let-7g expression in HASMC by northern blot and real time PCR; details: HASMC treated with oxLDL plus suppressor; FIGS. 18, 21, 25
Method: In FIGS. 7 and 8, there is the relationship between oxLDL and let-7g in the HASMC. In the present embodiment, the HASMC are treated with various levels of oxLDL, for example 0, 20, 40 and 60 μg/ml, in order to monitor and to recorder the effect of oxLDL on let-7g. Similarly, the HASMC cell is grown in a 6-well plate till at a density of 2×10^5 cell/well, and then randomly assigned into plural groups with the treatment of 0, 20, 40 and 60 μg/ml oxLDL individually for 24 hours. Finally, total RNA samples of each group of HASMC are analyzed by northern blot and quantified real time PCR via above protocols. In the present embodiment, a primer pair of let-7g as set forth in SEQ ID NO: 7 and 8 is used in the teal time PCR analysis according to the same PCR program described above. Also, the northern blot of the present invention is determined by using a miRNA northern blot assay kit (Applied Biosystems, CA, USA). […]
(§1) In the present embodiment, the HASMCs are randomly assigned into four groups, including groups (O1), as a control; (O2), with treatment of oxLDL; (O3), with co-transfection of the OCT-1 shRNA; and (O4), with co-transfection of the OCT-1 shRNA and treatment of oxLDL, wherein total RNA samples and protein sample of those groups are extracted and analyzed by the real time PCR and the western blot of the present invention. […]

[3] = test system: LOX-1; assay: LOX-1 expression in HASMC by real time PCR and western blot; details: for oxLDL-induced LOX-1 expression (mRNA): HASMC treated with oxLDL plus suppressor, FIGS. 19, 22, 26; for protein levels of LOX-1 (western blot): HASMC with suppressor, with or without oxLDL, FIGS. 20, 23, 28
Method: With reference to FIG. 2, there center on the expression of oxLDL and LOX-1 in human aortic smooth muscle cells. In the present embodiment, a primary human aortic smooth muscle cells (HASMC) cell line purchased from Cascade Biologics (OR, USA) is prepared and treated with various levels of oxLDL. More specifically, the HASMC cell line is incubated in a commercial smooth muscle cell growth supplement (SMGS) medium (Cascade Biologics, OR, USA) at 37° C. in a humidified atmosphere of 95% air and 5% CO2.
In the present embodiment, the HASMC cell line is grown in a 6-well plate till at a density of 2×10^5 cell/well, and then randomly assigned into four groups. The four groups of HASMC are co-cultured with 0, 20, 40, and 60 μg/ml of oxLDL individually for 24 hours, followed by analyzing the gene expression of HASMC via real time polymerase chain reaction (PCR) and western blot. Total RNA samples of the four groups of HASMC are prepared by using a Trizol® reagent (Invitrogen, CA, USA), and further quantitatively confirmed by a spectrophotometer at A260/A280 readings. Then, cDNA samples of the four groups of HASMC are synthesized by using a random primer and a MultiScribe™ Reverse Transcriptase Kit (Applied Biosystems Inc, CA, USA). The cDNA samples of the four groups of HASMC are sequentially diluted in 2×SYBR Green PCR Master Mix (Applied Biosystems Inc, CA, USA) to carry out quantitative real time PCR analysis. In the present invention, a primer pair of LOX-1 is designed and used in the real time PCR analysis, wherein the primer pair of LOX-1 is set forth in SEQ ID NO. 3 and 4.
On the other hand, protein samples of the four groups of HASMC are prepared by harvesting the four groups of HASMC in RIPA buffer (Invitrogen, CA, USA) firstly and centrifuged at 4° C. 1,2000 rpm to obtain supernatants as total cell lysate of the four groups of HASMC. In the present embodiment, the four groups of protein lysate are denatured in a mixture of 2% SDS, 10 mM dithiothreitol, 60 mM Tris-HCl (pH6.8) and 0.1% bromphenol blue, and then analyzed by polyacrylamide/SDS gel. Data obtained from the polyacrylamide/SDS gel analysis are further transferred to PVDF membrane for western blot assay.
In FIG. 9, the expression of LOX-1 in HASMC under various levels of let-7g is monitored and reordered. […]
as §1

[4] = test system: 3'UTR region of LOX-1; assay: LOX-1 3'UTR luciferase reporter assay in CRL-1999 cells; details: groups U1 to U7, FIG. 12
Description: Referring to FIGS. 10 and 11, the relationship between oxLDL, LOX-1 and let-7g is further identified. In the present invention, the 3′UTR region of LOX-1 is cloned into a commercial vector, preferably downstream of a reporter gene, such as a luciferase gene, for the sake of studying the effect of oxLDL and let-7g on LOX-1 by estimating the activity of the reporter gene. In the present embodiment, a pMIR-LOX-1-3UTR vector is obtained by PCR amplifying the 3′UTR region of LOX-1 in the chromosome DNA of HASMC with a primer pair set forth in SEQ ID NO. 9 and 10; and cloning the amplified 3′UTR region of LOX-1 into a pMIR-REpORT luciferase vector (Ambion Inc, TX, USA). Furthermore, the pMIR-LOX-1-3UTR vector of the present embodiment is transfected into a human smooth muscle cell line CRL-1999 purchased from ATCC (Manassas, Va., USA) by using lipofectamine 2000 (Invitrogen Inc, CA, USA). In the present embodiment, the CRL-1999 cell line of the present embodiment is incubated in F12K Kaighn's modification medium (GIBCO-BRL, MD, USA) with various levels of oxLDL and let-7g mimic, followed by analyzed the activity of luciferase by a Luciferase Assay System (Promega, WI, USA). […]

Row | Compound | oxLDL-induced OCT-1 expression (mRNA) ([1]; HASMC treated with oxLDL plus MAPTAM, FIG. 27) | protein levels of OCT-1 (western blot) [1] | oxLDL-mediated inhibition on let-7g (relative let-7g levels) [2] | oxLDL-induced LOX-1 expression (mRNA) [3] | protein levels of LOX-1 (western blot) [3] | luciferase activity, pMIR-LOX-1-3UTR versus pMIR-LOX-1 mutant 3'UTR [4]
1 | CC(=O)OCOC(=O)CN(CC(=O)OCOC(C)=O)c1ccc(C)cc1OCCOc1cc(C)ccc1N(CC(=O)OCOC(C)=O)CC(=O)OCOC(C)=O [MAPTAM] | decreased | significant decrease | decreased | decreased | significant decrease | –
2 | COc1ccc2c(c[n+](C)c3c4cc5c(cc4ccc23)OCO5)c1OC [chelerythrine] | – | significant decrease | inhibited | inhibited | significant decrease | –
3 | let-7g: mature form of microRNA-let-7g, as set forth in SEQ ID NO. 2 (UGAGGUAGUAGUUUGUACAGUU; listed as RNA, chemistry not given here; listed as Homo sapiens) | – | – | – | – | – | targets to the 3′UTR region of LOX-1 to suppress the expression of LOX-1
